In one series the target is T1, Aminopeptidase N (Sus scrofa, UniProt P15145).
T1 sequence (P15145 whole entry): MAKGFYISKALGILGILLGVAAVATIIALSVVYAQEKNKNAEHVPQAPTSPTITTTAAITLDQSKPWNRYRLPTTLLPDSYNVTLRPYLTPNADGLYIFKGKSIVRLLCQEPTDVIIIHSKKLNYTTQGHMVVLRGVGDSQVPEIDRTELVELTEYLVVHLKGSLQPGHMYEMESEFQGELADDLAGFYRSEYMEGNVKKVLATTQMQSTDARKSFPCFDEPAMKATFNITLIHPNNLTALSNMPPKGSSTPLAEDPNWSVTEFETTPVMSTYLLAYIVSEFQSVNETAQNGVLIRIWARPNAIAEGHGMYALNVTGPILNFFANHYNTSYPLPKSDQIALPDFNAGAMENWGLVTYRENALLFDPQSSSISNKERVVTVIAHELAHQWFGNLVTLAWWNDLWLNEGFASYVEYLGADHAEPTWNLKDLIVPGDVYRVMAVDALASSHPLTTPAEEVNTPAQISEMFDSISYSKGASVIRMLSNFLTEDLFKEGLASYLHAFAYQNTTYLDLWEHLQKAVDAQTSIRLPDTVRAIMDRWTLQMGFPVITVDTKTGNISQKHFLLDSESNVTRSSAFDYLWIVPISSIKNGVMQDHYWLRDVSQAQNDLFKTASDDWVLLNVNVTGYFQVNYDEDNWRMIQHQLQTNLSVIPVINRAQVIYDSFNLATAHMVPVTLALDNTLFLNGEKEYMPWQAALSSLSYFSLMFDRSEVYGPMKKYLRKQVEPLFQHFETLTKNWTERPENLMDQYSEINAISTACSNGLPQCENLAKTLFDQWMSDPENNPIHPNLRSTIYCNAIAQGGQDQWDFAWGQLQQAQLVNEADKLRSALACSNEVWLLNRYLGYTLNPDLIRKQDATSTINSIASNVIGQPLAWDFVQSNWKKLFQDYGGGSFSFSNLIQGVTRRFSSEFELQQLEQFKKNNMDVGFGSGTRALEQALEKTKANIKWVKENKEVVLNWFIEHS
The series is described as follows: Inhibition of porcine kidney microsomal CD13 using L-leucine-p-nitroanilide as substrate preincubated for 5 mins followed by substrate addition and measured after 30 mins by microplate reader analysis. It is filed as microsomes, Microsome.

For the next series, the system named is MCF7. Briefly: Antiproliferative activity against human MCF7 cells after 48 hrs by MTT assay. Particulars: MCF7, 48 h. (In general: Formazan colour is commonly taken as a measure of viable cells.)
The next series has as its system HeLa. Briefly: Antiproliferative activity against human HeLa cells after 48 hrs by MTT assay.
A short description of series [1]: Antiproliferative activity against human ES2 cells after 48 hrs by MTT assay. Particulars: ES-2, 48 h.
Series [2] can be described thus: Antiproliferative activity against human 3AO cells after 48 hrs by MTT assay.
The test system of a further series is KG-1. Briefly: Antiproliferative activity against human KG1 cells after 48 hrs by MTT assay. Particulars: KG-1, 48 h.
For the next series, the system named is HCT-116. The series is described as follows: Antiproliferative activity against human HCT-116 cells after 48 hrs by MTT assay. As to conditions: HCT-116, 48 h.
The subject of a further series is A549. The series is described as follows: Antiproliferative activity against human A549 cells after 48 hrs by MTT assay. Particulars: A549, 48 h.
Series [3] in a line: Antiproliferative activity against human H7402 cells after 48 hrs by MTT assay. Particulars: H7402, 48 h.
For a further series, the system named is HepG2. Briefly: Antiproliferative activity against human HepG2 cells after 48 hrs by MTT assay. As to conditions: HepG2, 48 h.
For series [4], the system named is PLC-PRF-5. Briefly: Antiproliferative activity against human PLC-PRF-5 cells after 48 hrs by MTT assay. As to conditions: PLC-PRF-5, 48 h.
The subject of series [5] is HUVEC. The series is described as follows: Anti-angiogenesis activity in HUVEC assessed as inhibition of capillary like tube formation incubated for 6 hrs by matrigel based capillary tube formation assay. In kind it is functional, cell-based. As to conditions: Homo sapiens, dose 10-30 µM.
For series [6], the system named is HUVEC. Briefly: Anti-angiogenesis activity in HUVEC assessed as inhibition of capillary like tube formation at 30 uM incubated for 6 hrs by matrigel based capillary tube formation assay. In kind it is functional, Homo sapiens. Details: scale not given: the % may be the effect or the level left.
In another series the test system is Aorta. Briefly: Anti-angiogenesis activity in Wistar rat thoracic aortic rings assessed as decrease in number of microvessels sprouting at 20 ug/ml treated every other day for 9 days. In kind it is functional, tissue-based. As to conditions: dose 20.0 µg/ml, time 9.0 day.
Series [7] has as its system H22. Briefly: Antitumor activity against mouse H22 cells transplanted in iv dosed Kunming mouse assessed as tumor growth inhibition administered 5 days per week for 2 weeks. In kind it is functional, organism-based. As to conditions: dose 20-80 mg/kg.
Series [8] has as its system H22. Briefly: Antitumor activity against mouse H22 cells transplanted in Kunming mouse assessed as tumor growth inhibition at 80 mg/kg/day, iv administered 5 days per week for 2 weeks relative to treated combination of 5-FU and Ube. It is filed as functional, organism-based.
The test system of series [9] is H22. The series is described as follows: Antitumor activity against mouse H22 cells transplanted in orally dosed Kunming mouse assessed as tumor growth inhibition administered 5 days per week for 2 weeks. As to conditions: dose 40-80 mg/kg. It is filed as functional, organism-based.
The test system of series [10] is H22. Briefly: Antitumor activity against mouse H22 cells transplanted in Kunming mouse assessed as tumor growth inhibition at 80 mg/kg/day, po administered 5 days per week for 2 weeks. It is filed as functional, organism-based.
The nature of series [11]: Toxicity in Kunming mouse transplanted with mouse H22 cells assessed as change in body weight at 40 to 80 mg/kg/day, po administered 5 days per week for 2 weeks. Particulars: in vivo, 336 h, dose 40-80 mg/kg/day. It is filed as organism-based.
A short description of series [12]: Toxicity in Kunming mouse transplanted with mouse H22 cells assessed as side effects at 40 to 80 mg/kg/day, po administered 5 days per week for 2 weeks. It is filed as organism-based. As to conditions: in vivo, 336 h, dose 40-80 mg/kg/day.
Series [13] deals with PLC-PRF-5. The series is described as follows: Antitumor activity against human PLC-PRF-5 cells xenografted in iv dosed BALB/c athymic nude mouse assessed as tumor growth inhibition. In kind it is functional, organism-based. Particulars: dose 20-80 mg/kg.
The subject of series [14] is PLC-PRF-5. The series is described as follows: Antitumor activity against human PLC-PRF-5 cells xenografted in orally dosed NOD/SCID mouse assessed as tumor growth inhibition. In kind it is functional, organism-based. As to conditions: dose 100-120 mg/kg. (In general: Xenograft models place foreign cells or tissue in a host animal.)
Series [15] can be described thus: Toxicity in BALB/c athymic nude mouse xenografted with human PLC-PRF-5 cells assessed as change in body weight at 20 to 80 mg/kg, iv. Particulars: in vivo, dose 20-80 mg/kg. It is filed as organism-based.
Series [16] can be described thus: Toxicity in NOD/SCID mouse xenografted with human PLC-PRF-5 cells assessed as change in body weight at 100 to 120 mg/kg, po. Particulars: in vivo, dose 100-120 mg/kg. In kind it is organism-based.
Series [17] deals with H22. Briefly: Antimetastatic activity against mouse H22 cells inoculated in orally dosed Kunming mouse assessed as reduction in lung metastatic nodes administered for 5 days starting from day 11 post inoculation and 2 days of withdrawal measured after 24 days. In kind it is functional, organism-based. As to conditions: dose 80-100 mg/kg, time 5.0 day.
The test system of series [18] is H22. The series is described as follows: Antitumor activity against 5-FU-resistant mouse H22 cells transplanted in Kunming mouse assessed as tumor growth inhibition at 200 uM/kg/day, po administered for 14 days. In kind it is functional, organism-based. Particulars: time 14.0 day.
Series [19] in a line: Toxicity in Kunming mouse transplanted with 5-FU-resistant mouse H22 cells assessed as change in body weight at 200 uM/kg/day, po administered daily for 14 days. It is filed as organism-based. Particulars: in vivo, 336 h, time 14 day.
A short description of series [20]: Prodrug conversion in human plasma assessed as release of active metabolites 5-FU and Ube measured within 30 mins at 37 degC. In kind it is ADME, cell-free. Particulars: 0.5 h.
Another series concerns MDA-MB-231. The series is described as follows: cells. Particulars: Homo sapiens, MDA-MB-231, 48 h.
The subject of a further series is HEL. The series is described as follows: cells. Particulars: Homo sapiens, 48 h.
The test system of the next series is PC-3. Briefly: cells. As to conditions: Homo sapiens, PC-3, 48 h.
Series [21] has as its system H22. The series is described as follows: Antitumor activity against mouse H22 cells transplanted in Kunming mouse assessed as tumor growth inhibition at 20 mg/kg/day, ip administered 5 days per week for 2 weeks. In kind it is functional, organism-based.
Series [22] has as its system H22. Briefly: Antitumor activity against mouse H22 cells transplanted in Kunming mouse assessed as tumor growth inhibition at 100 mg/kg/day, po administered 5 days per week for 2 weeks. In kind it is functional, organism-based.

The source made the active and inactive calls. No cut-off for these calls is given here. Where only a bound is given, the exact number is not on record here.

Description for MDA-MB-231: Antiproliferative activity against human MDA-MB-231 cells after 48 hrs by MTT assay
Description for PC-3: Antiproliferative activity against human PC-3 cells after 48 hrs by MTT assay

A word on the IC50: it is the midpoint of a concentration-inhibition curve. Consider `CC(C)C[C@H](NC(=O)[C@@H](O)[C@H](N)Cc1ccccc1)C(=O)OCn1cc(F)c(=O)[nH]c1=O.Cl`, for which the 50% inhibitory concentration (IC50) stood at 6.98 µM at Aminopeptidase N; 19 µM with MCF7; 7.27 µM in the series on HeLa; 22.8 µM in [1]; 25.9 µM in series [2]; 30.9 µM with KG-1. Moreover, the half-maximal inhibitory concentration (IC50) with HCT-116 came out at 14.7 µM; with A549 it was 5.68 µM; in series [3], 11.5 µM; in the series with HepG2, 7.49 µM; with PLC-PRF-5 [4], 17.5 µM; in the series with MDA-MB-231, 10.5 µM. For the same compound, the IC50 with HEL is 9.18 µM; in the series on PC-3, 24.3 µM. The Activity result in the series with HUVEC [5] is “Dose-dependent effect”; in the series on HUVEC [6] it was 100%; in the series on H22 [7], “Dose-dependent effect”; in the series on H22 [9] it was “Dose-dependent effect”; in series [11], “Non-Toxic”; in [12], “Non-Toxic”. In addition, the Activity entry with PLC-PRF-5 [13] is “Dose-dependent effect”; with PLC-PRF-5 [14], “Dose-dependent effect”; in series [15], “Non-Toxic”; in series [16], “Non-Toxic”; with H22 [17], “Dose-dependent effect”; in [19] it was “Non-Toxic”. Further, the outcome with Aorta, with H22 [8], in the series with H22 [10] and in the series with H22 [18] was Active. The Drug metabolism result in [20] is on record as “Metabolite_Detected”.

Take `O=c1[nH]cc(F)c(=O)[nH]1` [FLUOROURACIL]: the IC50 in the series on MCF7 was determined as 71.5 µM; with HeLa, 133 µM; in [1] it was 93.5 µM; in [2] it was 60.8 µM; in the series on KG-1, 83 µM; with HCT-116, 84.9 µM. In addition, the concentration for half-maximal inhibition (IC50) in [3] came out at 29 µM; in the series on HepG2, 13.5 µM; with PLC-PRF-5 [4] it was 38.4 µM; in the series on MDA-MB-231 it was 22.5 µM; in the series on HEL, 32.3 µM; with PC-3 it was 106 µM. The result in the series on H22 [21] was Active. In addition, the result in the series with H22 [18] was inactive.

In the case of `CC(C)C[C@H](NC(=O)[C@@H](O)[C@H](N)Cc1ccccc1)C(=O)O` [UBENIMEX], the IC50 was greater than 500 µM in the series on MCF7; greater than 500 µM with HeLa; greater than 500 µM in [1]; greater than 500 µM in series [2]; greater than 500 µM in the series with KG-1; 315 µM in the series with HCT-116. The IC50 in [3] is greater than 500 µM; in the series with HepG2, greater than 500 µM; in the series on PLC-PRF-5 [4], greater than 500 µM; in the series with MDA-MB-231, greater than 500 µM; in the series with HEL, 417 µM. In addition, the result with HUVEC [6] (Homo sapiens) and in the series on Aorta was Active.

`CCCCCOC(=O)Nc1nc(=O)n([C@@H]2O[C@H](C)[C@@H](O)[C@H]2O)cc1F`: the outcome with H22 [22] was Active.

(Values after ChEMBL document CHEMBL4715747 (Eur J Med Chem, 2016).)
